Bridge positions count the residues as written; N and C are the ends.
T1: human carcinoembryonic antigen (CEA), wild type (human, UniProt P06731 35-685, glycophosphatidyl inositol (GPI) membrane anchor)
T1 sequence (looked up): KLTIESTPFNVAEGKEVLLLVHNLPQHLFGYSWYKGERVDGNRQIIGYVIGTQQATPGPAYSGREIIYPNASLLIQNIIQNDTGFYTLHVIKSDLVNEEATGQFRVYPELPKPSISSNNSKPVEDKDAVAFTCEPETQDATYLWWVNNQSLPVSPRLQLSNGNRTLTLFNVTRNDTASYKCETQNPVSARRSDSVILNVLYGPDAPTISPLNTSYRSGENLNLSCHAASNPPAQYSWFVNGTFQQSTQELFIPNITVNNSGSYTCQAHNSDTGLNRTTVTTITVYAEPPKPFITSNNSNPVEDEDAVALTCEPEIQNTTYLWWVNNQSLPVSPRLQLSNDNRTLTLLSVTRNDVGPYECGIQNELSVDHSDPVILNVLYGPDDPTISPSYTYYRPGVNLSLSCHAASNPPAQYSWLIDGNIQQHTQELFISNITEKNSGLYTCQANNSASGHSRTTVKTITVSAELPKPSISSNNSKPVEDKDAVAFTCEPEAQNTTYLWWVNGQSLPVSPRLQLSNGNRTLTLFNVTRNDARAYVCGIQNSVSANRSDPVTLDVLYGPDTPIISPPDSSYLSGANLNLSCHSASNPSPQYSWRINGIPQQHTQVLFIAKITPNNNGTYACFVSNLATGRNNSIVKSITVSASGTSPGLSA

B1: cyclized peptide H-CGYSWYKC-OH (subdomain 1) (peptide)
peptide: H-CGYSWYKC-OH
modifications: disulfide 1-8
SMILES: NCCCC[C@@H]1NC(=O)[C@H](Cc2ccc(O)cc2)NC(=O)[C@H](Cc2c[nH]c3ccccc23)NC(=O)[C@H](CO)NC(=O)[C@H](Cc2ccc(O)cc2)NC(=O)CNC(=O)[C@@H](N)CSSC[C@@H](C(=O)O)NC1=O
B2: cyclized peptide H-CQNDTGC-OH (subdomain 3) (peptide)
peptide: H-CQNDTGC-OH
modifications: disulfide 1-7
SMILES: C[C@@H](O)[C@@H]1NC(=O)[C@H](CC(=O)O)NC(=O)[C@H](CC(N)=O)NC(=O)[C@H](CCC(N)=O)NC(=O)[C@@H](N)CSSC[C@@H](C(=O)O)NC(=O)CNC1=O
B3: cyclized peptide H-CGNRQIIC-OH (subdomain 2) (peptide)
peptide: H-CGNRQIIC-OH
modifications: disulfide 1-8
SMILES: CC[C@H](C)[C@@H]1NC(=O)[C@H](CCC(N)=O)NC(=O)[C@H](CCCNC(=N)N)NC(=O)[C@H](CC(N)=O)NC(=O)CNC(=O)[C@@H](N)CSSC[C@@H](C(=O)O)NC(=O)[C@H]([C@@H](C)CC)NC1=O

Key:
[1] = system: human colorectal carcinoma cells; experiment: Lung metastases of human colorectal carcinoma cells in nude mice; type: in vivo; details: after 30 days; PEG-A20Fab 200 μg iv, Taxol 5 mg/kg ip every 6 days; versus untreated animals
Experimental: Mice were inoculated by intravenous injection of human colorectal carcinoma cells on day 0. Treatment was initiated either immediately following inoculation or 12 hours thereafter. PEGylated A20 Fab fragments (PEG-A20Fab) were administered intravenously (200 μg or 7-8 mg/kg) every day for the first 2 days followed by every 3 days thereafter. Taxol was administered at 5 mg/kg every 6 days (ip). After 30 days, the number of lung surface colonies, representing metastases, were counted.

[2] = system: human colorectal carcinoma cell lines, SW-1222 and LS-180; details: A20 Fab 100 μg/ml ex vivo, 0.5 mg/dose iv daily day 3-8; taxol 5 nM ex vivo, 5 mg/kg ip day 4; analysis day 9
Experimental: The efficacy was investigated by a treatment protocol in which the ability of the treated cells to conform to normal colonic tissue architecture and to fail to form tumors, was assessed.
Several experiments were conducted in which the effect on two human colorectal carcinoma cell lines (test cells), when mixed in a defined proportion with normal fetal rat colonic cells and grown as aggregates implanted under the kidney capsule of nude mice, of taxol alone, taxol in combination with irrelevant isotype matched control P3X Fabs, and taxol in combination with A20 Fabs, was compared. The test cells in the “mini-colons” that developed after 7-10 days were assessed for either conformance to normal crypt-like tissue architecture or for formation of tumors (43).
With this in mind, the treatment regimen employed subjecting the test cells to the maximum possible dose over the course of the assay. This regimen included three administrations of A20 Fabs to the test cells in the ex vivo portion of the assay (pre-treatment, during which the aggregates are constructed), followed by daily intravenous injections during the in vivo growth of the implanted aggregates (therapeutic treatment). Pre-treatment of the test cells with A20 Fabs at 100 μg/ml commenced on day 0. […]

[3] = system: CEA-mediated intercellular adhesion; details: from references (16), (29); cited from earlier work
[4] = molecular target: T1, human carcinoembryonic antigen (CEA), …; experiment: cell-based or functional assay

| Molecule | release of CEA-imposed myogenic differentiation block, % fusion of L6 (CEA) cells at 100 µM peptide [4] | further results |
| --- | --- | --- |
| CC(=O)O[C@H]1C(=O)[C@@]2(C)[C@H]([C@H](OC(=O)c3ccccc3)[C@]3(O)C[C@H](OC(=O)[C@H](O)[C@@H](NC(=O)c4ccccc4)c4ccccc4)C(C)=C1C3(C)C)[C@]1(OC(C)=O)CO[C@@H]1C[C@@H]2O [Taxol, Paclitaxel] | – | number of lung surface colonies [1]: no effect; tumor growth in mini-colons [2]: much larger, more solid and less differentiated |
| H-CQNDTGC-OH (disulfide 1-7; also: synthetic cyclic peptide) [cyclized peptide representing subdomain 3 of the CEA N domain] | – | inhibition of CEA-mediated intercellular adhesion [3]: effective in inhibiting CEA-mediated intercellular adhesion |
| B1 | 18 % fusion | – |
| B2 | 36 % fusion | – |
| B3 | 28 % fusion | – |
